Assays:
RENCA tumour cells = assay: Antitumor activity, RENCA model; assay type: in vivo, mouse; conditions: D18 and D22, compared to untreated and vehicle groups, FIG. 3B
Method: Treatment schedule—The start of first dosing was considered as D0. On D0, non-engrafted mice were randomized according to their individual body weight into groups of 9 mice using Vivo manager® software (Biosystemes, Couternon, France). On D0, the mice received vehicle (culture medium) or bacterial strain (2×10^8 in 200 μL, PO). On D14, all mice were engrafted with RENCA tumour cells injected SC into the ventral surface of the lower flank as described below. Treatment with anti-CTLA-4 (10 mg/kg, IP) and anti-PDL1 (clone 10F.9G2, 10 mg/kg) was initiated when tumours reached a volume of 50-70 mm3.
Orthotopic induction of RENCA tumor cells in animals by SC injection—On D14, one million (1×10^6) RENCA tumor cells in 50 ΞL RPMI 1640 medium were transplanted via SC injection into the ventral surface of the lower flank of mice.
Euthanasia - Each mouse was euthanized when it reached a humane endpoint as described in section below, or after a maximum of 6 weeks post start of dosing.
Evaluation of tumour burden at euthanasia—At the time of termination, tumours were collected and their volume evaluated.
Clinical monitoring—The length and width of the tumour was measured twice a week with callipers and the volume of the tumour was estimated by this formula [52]: […]

immature dendritic cells = assay: Cytokine production in immature dendritic cells; assay type: cell-based; conditions: compared to the negative control, MRX518 10^7/ml, LPS 100 ng/ml, FIG. 4
Method: A monocyte population was isolated from peripheral blood mononuclear cells (PBMCs). The monocyte cells were subsequently differentiated into immature dendritic cells. The immature dendritic cells were plated out at 200,000 cells/well and incubated with MRX518 at a final concentration of 10^7/ml, with the optional addition of LPS at a final concentration of 100 ng/ml. The negative control involved incubating the cells with RPMI media alone and positive controls incubated the cells with LPS at a final concentration of 100ng/ml. The cytokine content of the cells was then analysed.

CC(=O)O[C@H]1C(=O)[C@@]2(C)[C@H]([C@H](OC(=O)c3ccccc3)[C@]3(O)C[C@H](OC(=O)[C@H](O)[C@@H](NC(=O)c4ccccc4)c4ccccc4)C(C)=C1C3(C)C)[C@]1(OC(C)=O)CO[C@@H]1C[C@@H]2O [Paclitaxel]
tumour size (RENCA tumour cells): (almost) complete reduction

lipopolysaccharide [LPS]
level of IL-6 (immature dendritic cells): increase
level of TNF-α (immature dendritic cells): increase

Source: patent US20240016861A1, “COMBINATION THERAPY FOR TREATING OR PREVENTING CANCER” (4D Pharma Research Limited, priority 2018, published 2024)
